Test results: patent publication US6737383B1, “Herbicidal oxadiazolidines” (priority 1999, dated 2004)

What was measured:
[1] = system: Alexandergrass; experiment: Test D Alexandergrass; type: in vivo, Brachiaria plantaginea; details: Preemergence, 0 to 100 scale
Outline: (§1)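 Seeds were sown in greenhouse pots, one species per pot or compartment. Compounds were in a non-phytotoxic solvent mixture with surfactant; preemergence applications went on the sandy loam surface within one day of planting. Injury was rated visually after 14 to 21 days, 0 (none) to 100 (complete control).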

[2] = system: common pursiane; experiment: Test D common purslane; type: in vivo, Portulaca oleracea; details: Preemergence, 0 to 100 scale
Outline: as §1

[3] = system: common ragweed; experiment: Test D common ragweed; type: in vivo, Ambrosia elatior; details: Preemergence, 0 to 100 scale
Outline: as §1

[4] = system: goosegrass; experiment: Test D goosegrass; type: in vivo, Eleusine indica; details: Preemergence, 0 to 100 scale
Outline: as §1

[5] = system: guineagrass; experiment: Test D guineagrass; type: in vivo, Panicum maximum; details: Preemergence, 0 to 100 scale
Outline: as §1

[6] = system: itchgrass; experiment: Test D itchgrass; type: in vivo, Rottboellia exaltata; details: Preemergence, 0 to 100 scale
Outline: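 Scoring used a 0–100 visual injury scale, with 0 meaning no effect and 100 complete control, assessed 14–21 days after application alongside untreated pots. Preemergence treatments went onto sandy loam surfaces of separately potted seeds within a day of sowing.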

[7] = system: Johnson grass; experiment: Test D Johnson grass; type: in vivo, Sorghum halepense; details: Preemergence, 0 to 100 scale
Outline: as §1

[8] = system: large crabgrass; experiment: Test D large crabgrass; type: in vivo, Digitaria sanguinalis; details: Preemergence, 0 to 100 scale
Outline: as §1

[9] = system: pitted morningglory; experiment: Test D pitted morningglory; type: in vivo, Ipomoea lacunosa; details: Preemergence, 0 to 100 scale
Outline: as §1

[10] = system: purple nutsedge; experiment: Test D purple nutsedge; type: in vivo, Cyperus rotundus; details: Preemergence, 0 to 100 scale
Outline: as §1

[11] = system: sandbur; experiment: Test D sandbur; type: in vivo, Cenchrus echinatus; details: Preemergence, 0 to 100 scale
Outline: as §1

[12] = system: Spanishneedles; experiment: Test D Spanishneedles; type: in vivo, Bidens bipinnata; details: Preemergence, 0 to 100 scale
Outline: as §1

[13] = system: surinam grass; experiment: Test D surinam grass; type: in vivo, Brachiaria decumbens; details: Preemergence, 0 to 100 scale
Outline: as §1

[14] = system: tall mallow; experiment: Test D tall mallow; type: in vivo, Malva sylvestris; details: Preemergence, 0 to 100 scale
Outline: as §1

[15] = system: pitted morningglory; experiment: Test D pitted morningglory; type: in vivo, Ipomoea lacunosa; details: Postemergence, 0 to 100 scale
[16] = system: lambsquarters; experiment: Test E lambsquarters; type: in vivo, Chenopodium album; details: Preemergence; for Lambsquarters plant response rating (0 to 100 scale): Rate 250 g/ha
[17] = system: Green foxtail; experiment: Test D green foxtail; type: in vivo; details: Postemergence, 0 to 100 scale, 0 no injury, 100 complete control
[18] = system: common groundsel; experiment: Test D common groundsel; type: in vivo, Senecio vulgaris; details: Preemergence, 0 to 100 scale
Outline: as §1

[19] = Rate 16 g/ha, 0 no injury, 100 complete control
[20] = Rate 32 g/ha, 0 no injury, 100 complete control
[21] = Rate 64 g/ha, 0 no injury, 100 complete control
[22] = Rate 125 g/ha, 0 no injury, 100 complete control
[23] = Rate 125 g/ha, 0 to 100 scale (0 no effect, 100 complete control)

Structure (SMILES): CC(C)N(C(=O)n1oc(=O)n(C2CC2)c1=O)c1ccc(F)cc1 [Compound 242]
- Plant response rating, Alexandergrass [1, 19]: 65
- Plant response rating, Alexandergrass [1, 20]: 85
- Plant response rating, Alexandergrass [1, 21]: 100
- Plant response rating, Alexandergrass [1, 22]: 98
- Plant response rating, Alexandergrass ([1]; Rate 250 g/ha): 100
- Plant response rating, Alexandergrass ([1]; Rate 500 g/ha): 100
- Plant response rating, C. purslane [2, 19]: 0
- Plant response rating, C. purslane [2, 20]: 0
- Plant response rating, C. purslane [2, 21]: 0
- Plant response rating, C. purslane [2, 22]: 0
- Plant response rating, C. purslane ([2]; Rate 250 g/ha): 0
- Plant response rating, C. purslane ([2]; Rate 500 g/ha): 0
- Plant response rating, C. ragweed [3, 19]: 100
- Plant response rating, C. ragweed [3, 20]: 100
- Plant response rating, C. ragweed [3, 21]: 100
- Plant response rating, C. ragweed [3, 22]: 100
- Plant response rating, C. ragweed ([3]; Rate 250 g/ha): 100
- Plant response rating, C. ragweed ([3]; Rate 500 g/ha): 100
- Plant response rating, Goosegrass [4, 19]: 75
- Plant response rating, Goosegrass [4, 20]: 85
- Plant response rating, Goosegrass [4, 21]: 95
- Plant response rating, Goosegrass [4, 22]: 100
- Plant response rating, Goosegrass ([4]; Rate 250 g/ha): 100
- Plant response rating, Goosegrass ([4]; Rate 500 g/ha): 100
- Plant response rating, Guineagrass [5, 19]: 70
- Plant response rating, Guineagrass [5, 20]: 85
- Plant response rating, Guineagrass [5, 21]: 98
- Plant response rating, Guineagrass [5, 22]: 100
- Plant response rating, Guineagrass ([5]; Rate 250 g/ha): 100
- Plant response rating, Guineagrass ([5]; Rate 500 g/ha): 100
- Plant response rating, Itchgrass [6, 19]: 65
- Plant response rating, Itchgrass [6, 20]: 65
- Plant response rating, Itchgrass [6, 21]: 70
- Plant response rating, Itchgrass [6, 22]: 80
- Plant response rating, Itchgrass ([6]; Rate 250 g/ha): 98
- Plant response rating, Itchgrass ([6]; Rate 500 g/ha): 100
- Plant response rating, Johnsongrass [7, 19]: 10
- Plant response rating, Johnsongrass [7, 20]: 40
- Plant response rating, Johnsongrass [7, 21]: 40
- Plant response rating, Johnsongrass [7, 22]: 85
- Plant response rating, Johnsongrass ([7]; Rate 250 g/ha): 98
- Plant response rating, Johnsongrass ([7]; Rate 500 g/ha): 100
- Plant response rating, Large crabgrass [8, 19]: 90
- Plant response rating, Large crabgrass [8, 20]: 100
- Plant response rating, Large crabgrass [8, 21]: 100
- Plant response rating, Large crabgrass [8, 22]: 100
- Plant response rating, Large crabgrass ([8]; Rate 250 g/ha): 100
- Plant response rating, Large crabgrass ([8]; Rate 500 g/ha): 100
- Plant response rating, P. morninglory [9, 19]: 0
- Plant response rating, P. morninglory [9, 20]: 0
- Plant response rating, P. morninglory [9, 21]: 10
- Plant response rating, P. morninglory [9, 22]: 20
- Plant response rating, P. morninglory ([9]; Rate 250 g/ha): 20
- Plant response rating, P. morninglory ([9]; Rate 500 g/ha): 100
- Plant response rating, Purple nutsedge [10, 19]: 0
- Plant response rating, Purple nutsedge [10, 20]: 0
- Purple nutsedge plant response rating [10, 21]: 0
- Purple nutsedge plant response rating [10, 22]: 40
- Plant response rating, Purple nutsedge ([10]; Rate 250 g/ha): 60
- Plant response rating, Purple nutsedge ([10]; Rate 500 g/ha): 60
- Plant response rating, Sandbur [11, 19]: 0
- Plant response rating, Sandbur [11, 20]: 0
- Sandbur plant response rating [11, 21]: 0
- Sandbur plant response rating [11, 22]: 90
- Plant response rating, Sandbur ([11]; Rate 250 g/ha): 100
- Plant response rating, Sandbur ([11]; Rate 500 g/ha): 100
- Plant response rating, Spanishneedles [12, 19]: 0
- Plant response rating, Spanishneedles [12, 20]: 0
- Spanishneedles plant response rating [12, 21]: 0
- Spanishneedles plant response rating [12, 22]: 10
- Plant response rating, Spanishneedles ([12]; Rate 250 g/ha): 10
- Plant response rating, Spanishneedles ([12]; Rate 500 g/ha): 40
- Plant response rating, Surinam grass [13, 19]: 20
- Plant response rating, Surinam grass [13, 20]: 85
- Surinam grass plant response rating [13, 21]: 85
- Surinam grass plant response rating [13, 22]: 90
- Plant response rating, Surinam grass ([13]; Rate 250 g/ha): 100
- Plant response rating, Surinam grass ([13]; Rate 500 g/ha): 100
- Plant response rating, Tall Mallow [14, 19]: 0
- Plant response rating, Tall Mallow [14, 20]: 0
- Tall Mallow plant response rating [14, 21]: 0
- Tall Mallow plant response rating [14, 22]: 0
- Plant response rating, Tall Mallow ([14]; Rate 250 g/ha): 60
- Plant response rating, Tall Mallow ([14]; Rate 500 g/ha): 85
- Plant response rating, P. morninglory [15, 19]: 0
- Plant response rating, P. morninglory [15, 20]: 0
- Plant response rating, P. morninglory [15, 21]: 0
- Plant response rating, P. morninglory [15, 22]: 0
- Plant response rating, P. morninglory ([15]; Rate 250 g/ha): 0
- Plant response rating Lambsquarters [16, 23]: 100
- Lambsquarters plant response rating (0 to 100 scale) [16]: 100
- Plant response rating Lambsquarters ([16]; Rate 500 g/ha, 0 to 100 scale where 0 is no effect and 100 is complete control): 100
- Green foxtail plant response rating ([17]; Rate 64 g/ha): 100
- Green foxtail plant response rating ([17]; Rate 125 g/ha): 100

Structure (SMILES): CC(C)N(C(=O)n1oc(=O)n(C)c1=O)c1ccc(F)cc1 [Compound 138]
- Plant response rating, Alexandergrass [1, 21]: 80
- Plant response rating, Alexandergrass [1, 22]: 80
- Plant response rating, Alexandergrass ([1]; Rate 250 g/ha): 98
- Plant response rating, Alexandergrass ([1]; Rate 500 g/ha): 100
- Plant response rating, C. purslane [2, 21]: 0
- Plant response rating, C. purslane [2, 22]: 30
- Plant response rating, C. purslane ([2]; Rate 250 g/ha): 100
- Plant response rating, C. purslane ([2]; Rate 500 g/ha): 100
- Plant response rating, C. ragweed [3, 21]: 10
- Plant response rating, C. ragweed [3, 22]: 30
- Plant response rating, C. ragweed ([3]; Rate 250 g/ha): 60
- Plant response rating, C. ragweed ([3]; Rate 500 g/ha): 100
- Plant response rating, Com. groundsel [18, 21]: 40
- Plant response rating, Com. groundsel [18, 22]: 100
- Plant response rating, Com. groundsel ([18]; Rate 250 g/ha): 100
- Plant response rating, Com. groundsel ([18]; Rate 500 g/ha): 100
- Plant response rating, Goosegrass [4, 21]: 98
- Plant response rating, Goosegrass [4, 22]: 100
- Plant response rating, Goosegrass ([4]; Rate 250 g/ha): 100
- Plant response rating, Goosegrass ([4]; Rate 500 g/ha): 100
- Plant response rating, Guineagrass [5, 21]: 100
- Plant response rating, Guineagrass [5, 22]: 100
- Plant response rating, Guineagrass ([5]; Rate 250 g/ha): 100
- Plant response rating, Guineagrass ([5]; Rate 500 g/ha): 100
- Plant response rating, Itchgrass [6, 21]: 30
- Plant response rating, Itchgrass [6, 22]: 80
- Plant response rating, Itchgrass ([6]; Rate 250 g/ha): 100
- Plant response rating, Itchgrass ([6]; Rate 500 g/ha): 100
- Plant response rating, Johnsongrass [7, 21]: 40
- Plant response rating, Johnsongrass [7, 22]: 65
- Plant response rating, Johnsongrass ([7]; Rate 250 g/ha): 100
- Plant response rating, Johnsongrass ([7]; Rate 500 g/ha): 100
- Plant response rating, Large crabgrass [8, 21]: 100
- Plant response rating, Large crabgrass [8, 22]: 100
- Plant response rating, Large crabgrass ([8]; Rate 250 g/ha): 100
- Plant response rating, Large crabgrass ([8]; Rate 500 g/ha): 100
- Plant response rating, P. morninglory [9, 21]: 65
- Plant response rating, P. morninglory [9, 22]: 65
- Plant response rating, P. morninglory ([9]; Rate 250 g/ha): 65
- Plant response rating, P. morninglory ([9]; Rate 500 g/ha): 65
- Purple nutsedge plant response rating [10, 21]: 30
- Purple nutsedge plant response rating [10, 22]: 65
- Plant response rating, Purple nutsedge ([10]; Rate 250 g/ha): 75
- Plant response rating, Purple nutsedge ([10]; Rate 500 g/ha): 80
- Sandbur plant response rating [11, 21]: 65
- Sandbur plant response rating [11, 22]: 65
- Plant response rating, Sandbur ([11]; Rate 250 g/ha): 98
- Plant response rating, Sandbur ([11]; Rate 500 g/ha): 100
- Spanishneedles plant response rating [12, 21]: 10
- Spanishneedles plant response rating [12, 22]: 10
- Plant response rating, Spanishneedles ([12]; Rate 250 g/ha): 30
- Plant response rating, Spanishneedles ([12]; Rate 500 g/ha): 75
- Surinam grass plant response rating [13, 21]: 40
- Surinam grass plant response rating [13, 22]: 85
- Plant response rating, Surinam grass ([13]; Rate 250 g/ha): 98
- Plant response rating, Surinam grass ([13]; Rate 500 g/ha): 100
- Tall Mallow plant response rating [14, 21]: 40
- Tall Mallow plant response rating [14, 22]: 40
- Plant response rating, Tall Mallow ([14]; Rate 250 g/ha): 70
- Plant response rating, Tall Mallow ([14]; Rate 500 g/ha): 100
- Plant response rating Lambsquarters [16, 23]: 100
- Lambsquarters plant response rating (0 to 100 scale) [16]: 100

Structure (SMILES): CC(C)N(C(=O)n1oc(=O)n(C2CCCCCC2)c1=O)c1ccc(F)cc1F [Compound 342]
- Plant response rating, P. morninglory [15, 19]: 0
- Plant response rating, P. morninglory [15, 20]: 0
- Plant response rating, P. morninglory [15, 21]: 0
- Plant response rating, P. morninglory [15, 22]: 0
- Plant response rating, P. morninglory ([15]; Rate 250 g/ha): 0
- Green foxtail plant response rating ([17]; Rate 64 g/ha): 0
- Green foxtail plant response rating ([17]; Rate 125 g/ha): 60
